Legend:
Type in all cases: in vivo
[1] = system: palmer (palmer amaranth, palmer pigweed, Amaranthus palmeri); assay: Test A preemergence soil spray, visual injury rating 0-100; details: 10 days
Outline: (§1)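 Visual injury ratings (0, no effect; 100, complete control) were assigned relative to untreated plants 10 days after treatment. Test chemicals, formulated with a surfactant-containing non-phytotoxic solvent, were applied in loam-sand soil either as a directed soil spray before emergence or to emerged plants, and plants were kept in a greenhouse.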

[2] = system: wheat (Triticum aestivum); assay: as above; details: 10 days
Outline: as §1

[3] = system: ragweed (common ragweed, Ambrosia artemisiifolia); assay: as above; details: 10 days
Outline: as §1

[4] = system: ryegrass, Italian (italian ryegrass, Lolium multiflorum); assay: as above; details: 10 days
Outline: as §1

[5] = system: barnyardgrass (Echinochloa crus-galli); assay: as above; details: 10 days
Outline: as §1

corn (Zea mays) [6] = assay: as above; details: 10 days
Outline: as §1

[7] = system: blackgrass (Alopecurus myosuroides); assay: as above; details: 10 days
Outline: as §1

soybean (Glycine max) [8] = assay: as above; details: 10 days
Outline: as §1

kochia (Bassia scoparia) [9] = assay: as above; details: 10 days
Outline: as §1

[10] = system: green foxtail (Setaria viridis); assay: as above; details: 10 days
Outline: as §1

[11] = system: oat, wild (wild oat, Avena fatua); assay: as above; details: 10 days
Outline: as §1

[12] = system: ducksalad (Heteranthera limosa); assay: Test B flooded paddy test, visual plant response rating 0-100; details: 250 g ai/ha, Flood, applied to paddy water, evaluated after 13 days
Outline: (§2)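 Plants were grown to the 2-leaf stage, then pots were flooded to 3 cm above the soil and compound was applied directly to the paddy water, with that depth kept throughout.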

rice (Oryza sativa) = assay: as above; details: 250 g ai/ha, Flood, applied to paddy water, evaluated after 13 days
Outline: as §2

[13] = system: sedge, umbrella (small-flower umbrella sedge, Cyperus difformis); assay: as above; details: 250 g ai/ha, Flood, applied to paddy water, evaluated after 13 days
Outline: as §2

[14] = system: barnyardgrass (Echinochloa crusgalli); assay: as above; details: 250 g ai/ha, Flood, applied to paddy water, evaluated after 13 days
Outline: as §2

[15] = system: palmer (palmer amaranth, palmer pigweed, Amaranthus palmeri); assay: Test A postemergence application, visual injury rating 0-100
Outline: as §1

[16] = system: horseweed (Erigeron canadensis); assay: as above
Outline: as §1

[17] = system: wheat (Triticum aestivum); assay: as above
Outline: as §1

[18] = system: ragweed (common ragweed, Ambrosia artemisiifolia); assay: as above
Outline: as §1

[19] = system: ryegrass, Italian (italian ryegrass, Lolium multiflorum); assay: as above
Outline: as §1

[20] = system: barnyardgrass (Echinochloa crus-galli); assay: as above
Outline: as §1

corn (Zea mays) [21] = assay: as above
Outline: as §1

[22] = system: blackgrass (Alopecurus myosuroides); assay: as above
Outline: as §1

soybean (Glycine max) [23] = assay: as above
Outline: as §1

kochia (Bassia scoparia) [24] = assay: as above
Outline: as §1

[25] = system: green foxtail (Setaria viridis); assay: as above
Outline: as §1

[26] = system: oat, wild (wild oat, Avena fatua); assay: as above
Outline: as §1

[27] = system: galium (catchweed bedstraw, Galium aparine); assay: as above
Outline: as §1

[28] = 62 g ai/ha, 0 = no effect, 100 = complete control
[29] = 62 g ai/ha, postemergence, 10 days, 0 = no effect, 100 = complete control
[30] = Postemergence, 16 g ai/ha, greenhouse 10 days, 0 no effect, 100 complete control

**Q.** How did the “Pigweed, Palmer plant response rating” value ([1]; 16 g ai/ha, 0 to 100 scale) turn out when COC(=O)C1C=CC(NC(=O)C2(C)CN(c3cccc(OC(F)(F)F)c3)C(=O)O2)C1 (mixture of isomers) [Compound 101] was run?
**A.** Its value is 0.

**Q.** What about the “Pigweed, Palmer plant response rating (0-100)” value [1, 28] of the same compound?
**A.** Its value is 0.

**Q.** What about the “Wheat plant response rating” value ([2]; 16 g ai/ha, 0 to 100 scale) of the same compound?
**A.** The value was 0.

**Q.** What about the “Wheat plant response rating (0-100)” value [2, 28] of the same compound?
**A.** Its value is 40.

**Q.** And the “Ragweed plant response rating” value ([3]; 16 g ai/ha, 0 to 100 scale)?
**A.** Its value is 0.

**Q.** And the “Ragweed plant response rating (0-100)” value [3, 28]?
**A.** The value was 10.

**Q.** What about the “Ryegrass, Italian plant response rating” value ([4]; 16 g ai/ha, 0 to 100 scale) of the same compound?
**A.** The value was 0.

**Q.** What about the “Ryegrass, Italian plant response rating (0-100)” value [4, 28] of the same compound?
**A.** Its value is 80.

**Q.** And the “Barnyardgrass plant response rating” value ([5]; 16 g ai/ha, 0 to 100 scale)?
**A.** The value was 0.

**Q.** And the “Barnyardgrass plant response rating (0-100)” value [5, 28]?
**A.** The value was 60.

**Q.** What about the “Corn plant response rating” value (corn (Zea mays) [6]; 16 g ai/ha, 0 to 100 scale) of the same compound?
**A.** The value was 0.

**Q.** And the “Corn plant response rating (0-100)” value (corn (Zea mays) [6]; [28])?
**A.** The value was 50.

**Q.** What about the “Blackgrass plant response rating” value ([7]; 16 g ai/ha, 0 to 100 scale) of the same compound?
**A.** The value was 0.

**Q.** What about the “Blackgrass plant response rating (0-100)” value [7, 28] of the same compound?
**A.** The value was 50.

**Q.** And the “Soybean plant response rating” value (soybean (Glycine max) [8]; 16 g ai/ha, 0 to 100 scale)?
**A.** The value was 0.

**Q.** What about the “Soybean plant response rating (0-100)” value (soybean (Glycine max) [8]; [28]) of the same compound?
**A.** Its value is 0.

**Q.** What about the “Kochia plant response rating” value (kochia (Bassia scoparia) [9]; 16 g ai/ha, 0 to 100 scale) of the same compound?
**A.** The value was 0.

**Q.** And the “Kochia plant response rating (0-100)” value (kochia (Bassia scoparia) [9]; [28])?
**A.** The value was 0.

**Q.** And the “Foxtail, Green plant response rating” value ([10]; 16 g ai/ha, 0 to 100 scale)?
**A.** The value was 0.

**Q.** And the “Foxtail, Green plant response rating (0-100)” value [10, 28]?
**A.** The value was 0.

**Q.** And the “Oat, Wild plant response rating” value ([11]; 16 g ai/ha, 0 to 100 scale)?
**A.** The value was 0.

**Q.** What about the “Oat, Wild plant response rating (0-100)” value [11, 28] of the same compound?
**A.** The value was 80.

**Q.** What about the “Plant response rating, Ducksalad (0 to 100 scale, 0 is no effect and 100 is complete control)” value [12] of the same compound?
**A.** The value was 0.

**Q.** And the “Plant response rating, Rice (0 to 100 scale, 0 is no effect and 100 is complete control)” value (rice (Oryza sativa))?
**A.** Its value is 0.

**Q.** What about the “Plant response rating, Sedge, Umbrella (0 to 100 scale, 0 is no effect and 100 is complete control)” value [13] of the same compound?
**A.** The value was 0.

**Q.** What about the “Plant response rating, Barnyardgrass (0 to 100 scale, 0 is no effect and 100 is complete control)” value [14] of the same compound?
**A.** The value was 0.

**Q.** And the “Pigweed, Palmer plant response rating (0-100)” value [15, 29]?
**A.** The value was 10.

**Q.** What about the “Pigweed, Palmer plant response rating (0 to 100 scale)” value [15, 30] of the same compound?
**A.** Its value is 0.

**Q.** What about the “Horseweed plant response rating (0-100)” value [16, 29] of the same compound?
**A.** The value was 10.

**Q.** And the “Horseweed plant response rating (0 to 100 scale)” value [16, 30]?
**A.** Its value is 10.

**Q.** And the “Wheat plant response rating (0-100)” value [17, 29]?
**A.** The value was 80.

**Q.** What about the “Wheat plant response rating (0 to 100 scale)” value [17, 30] of the same compound?
**A.** The value was 30.

**Q.** And the “Ragweed plant response rating (0-100)” value [18, 29]?
**A.** The value was 30.

**Q.** And the “Ragweed plant response rating (0 to 100 scale)” value [18, 30]?
**A.** Its value is 0.

**Q.** What about the “Ryegrass, Italian plant response rating (0-100)” value [19, 29] of the same compound?
**A.** Its value is 70.

**Q.** What about the “Ryegrass, Italian plant response rating (0 to 100 scale)” value [19, 30] of the same compound?
**A.** The value was 50.

**Q.** And the “Barnyardgrass plant response rating (0-100)” value [20, 29]?
**A.** The value was 90.

**Q.** What about the “Barnyardgrass plant response rating (0 to 100 scale)” value [20, 30] of the same compound?
**A.** Its value is 60.

**Q.** What about the “Corn plant response rating (0-100)” value (corn (Zea mays) [21]; [29]) of the same compound?
**A.** The value was 90.

**Q.** And the “Corn plant response rating (0 to 100 scale)” value (corn (Zea mays) [21]; [30])?
**A.** Its value is 50.

**Q.** What about the “Blackgrass plant response rating (0-100)” value [22, 29] of the same compound?
**A.** The value was 90.

**Q.** What about the “Blackgrass plant response rating (0 to 100 scale)” value [22, 30] of the same compound?
**A.** Its value is 80.

**Q.** What about the “Soybean plant response rating (0-100)” value (soybean (Glycine max) [23]; [29]) of the same compound?
**A.** The value was 60.

**Q.** And the “Soybean plant response rating (0 to 100 scale)” value (soybean (Glycine max) [23]; [30])?
**A.** Its value is 40.

**Q.** What about the “Kochia plant response rating (0-100)” value (kochia (Bassia scoparia) [24]; [29]) of the same compound?
**A.** Its value is 60.

**Q.** And the “Kochia plant response rating (0 to 100 scale)” value (kochia (Bassia scoparia) [24]; [30])?
**A.** Its value is 10.

**Q.** What about the “Foxtail, Green plant response rating (0-100)” value [25, 29] of the same compound?
**A.** The value was 50.

**Q.** And the “Foxtail, Green plant response rating (0 to 100 scale)” value [25, 30]?
**A.** Its value is 10.

**Q.** And the “Oat, Wild plant response rating (0-100)” value [26, 29]?
**A.** The value was 90.

**Q.** And the “Oat, Wild plant response rating (0 to 100 scale)” value [26, 30]?
**A.** The value was 70.

**Q.** What about the “Galium plant response rating (0-100)” value [27, 29] of the same compound?
**A.** The value was 60.

**Q.** And the “Galium plant response rating (0 to 100 scale)” value [27, 30]?
**A.** Its value is 50.

From patent US20260285850A1, “SUBSTITUTED OXAZOLIDINONES AND IMIDAZOLINONES AS HERBICIDES” (FMC CORPORATION, priority 2023, published 2026)
